Our source for the IC50 values is patent US20230131535A1, “ARYLMETHYLENE AROMATIC COMPOUNDS AS Kv1.3 POTASSIUM SHAKER CHANNEL BLOCKERS” (D. E. Shaw Research, LLC, priority 2019, published 2023).

A value given as a limit tells only on which side of the number the result lay.

For one test, the target named is T1, Kv1.3 potassium channel (Homo sapiens, UniProt P22001).
T1 construct: expressed in transfected cells
Nature of the test: Kv1.3 potassium channel blocker activity, automated whole-cell patch clamp (Patchliner). The conditions noted are these: Table 7; CHO-K1 cells stably expressing Kv1.3; whole cell current, pulses -90 mV to +40 mV; read-out: Kv1.3_IC50. The class given is cell-based. The essentials: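 CHO-K1 cells stably expressing Kv1.3, automated whole-cell patch clamp; 100 ms steps from −90 to +40 mV at 0.1 Hz, 20-pulse trains, P/4 leak subtraction. Cumulative 30 nM–100 μM on one cell, ≤10 s incubation; last-pulse peak/AUC normalised to control, IC50 from Hill fit.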
For orientation: Patch clamp records ionic current or voltage across a cell membrane.

A further test has as its target T2, hERG channel (Homo sapiens, UniProt Q12809).
T2 construct: expressed in transfected cells
In words: hERG electrophysiology, automated whole-cell patch clamp (Patchliner). The class given is cell-based. To be noted: Table 7; CHO-K1 cells stably expressing hERG; whole cell current, tail current protocol; read-out: hERG_IC50. As for the experimental part:
Example 68. Evaluation of hERG Activities
This assay is used to evaluate the disclosed compounds' inhibition activities against the hERG channel.
CHO-K1 cells stably expressing hERG were grown in Ham's F-12 Medium with Glutamine containing 10% heat-inactivated FBS, 1% Penicillin/Streptomycin, Hygromycin (100 μg/ml) and G418 (100 μg/ml). Cells were grown in culture flasks at 37° C. in a 5% CO2-humidified incubator.
The cells were bathed in an extracellular solution containing 140 mM NaCl, 4 mM KCl, 2 mM CaCl2), 1 mM MgCl2, 5 mM Glucose, 10 mM HEPES; pH adjusted to 7.4 with NaOH; 295-305 mOsm. The internal solution contained 50 mM KCl, 10 mM NaCl, 60 mM KF, 20 mM EGTA, 10 mM HEPES; pH adjusted to 7.2 with KOH; 285 mOsm. All compounds were dissolved in DMSO at 30 mM. Compound stock solutions were freshly diluted with external solution to concentrations of 30 nM, 100 nM, 300 nM, 1 μM, 3 μM, 10 μM, 30 μM and 100 μM. The highest content of DMSO (0.3%) was present in 100 μM.
The voltage protocol (see Table 5) was designed to simulate voltage changes during a cardiac action potential with a 300 ms depolarization to +20 mV (analogous to the plateau phase of the cardiac action potential), a repolarization for 300 ms to −50 mV (inducing a tail current) and a final step to the holding potential of −80 mV. The pulse frequency was 0.3 Hz. Control (compound-free) and compound pulse trains for each compound concentration applied contained 70 pulses.
Whole cell current recordings and compound application were enabled by means of an automated patch clamp platform Patchliner (Nanion). EPC 10 patch clamp amplifier (HEKA) along with Patchmaster software (HEKA Elektronik Dr. Schulze GmbH) was used for data acquisition. Data were sampled at 10 kHz without filtering. Increasing compound concentrations were applied consecutively to the same cell without washouts in between.
AUC and PEAK values were obtained with Patchmaster (HEKA Elektronik Dr. Schulze GmbH). To determine IC50 the last single pulse in the pulse train corresponding to a given compound concentration was used. Obtained AUC and PEAK values in the presence of compound were normalized to control values in the absence of compound. Using Origin (OridinLab), IC50 was derived from data fit to Hill equation: Icompound/Icontrol=(100−A)/(1+([compound]/IC50)nH)+A, where IC50 is the concentration at which current inhibition is half-maximal, [compound] is the applied compound concentration, A is the fraction of current that is not blocked and nH is the Hill coefficient.
On the technique in general: The hERG channel carries a current that helps repolarise heart muscle cells.

T1 sequence (P22001 whole entry): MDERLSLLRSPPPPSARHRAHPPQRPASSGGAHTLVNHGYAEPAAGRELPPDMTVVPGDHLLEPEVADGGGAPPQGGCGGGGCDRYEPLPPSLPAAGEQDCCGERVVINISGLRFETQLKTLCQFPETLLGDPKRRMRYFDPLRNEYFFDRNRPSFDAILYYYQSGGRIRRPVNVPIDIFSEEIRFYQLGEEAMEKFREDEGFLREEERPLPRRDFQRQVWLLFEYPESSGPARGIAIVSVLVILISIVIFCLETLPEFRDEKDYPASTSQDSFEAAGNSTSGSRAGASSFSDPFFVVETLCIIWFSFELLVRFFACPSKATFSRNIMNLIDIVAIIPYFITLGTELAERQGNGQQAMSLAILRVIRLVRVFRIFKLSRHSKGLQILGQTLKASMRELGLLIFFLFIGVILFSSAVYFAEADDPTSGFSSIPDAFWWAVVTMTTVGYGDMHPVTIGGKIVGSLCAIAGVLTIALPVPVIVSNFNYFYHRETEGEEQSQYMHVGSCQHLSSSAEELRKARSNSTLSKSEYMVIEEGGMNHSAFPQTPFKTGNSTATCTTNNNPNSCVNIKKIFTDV
T2 sequence (Q12809 whole entry): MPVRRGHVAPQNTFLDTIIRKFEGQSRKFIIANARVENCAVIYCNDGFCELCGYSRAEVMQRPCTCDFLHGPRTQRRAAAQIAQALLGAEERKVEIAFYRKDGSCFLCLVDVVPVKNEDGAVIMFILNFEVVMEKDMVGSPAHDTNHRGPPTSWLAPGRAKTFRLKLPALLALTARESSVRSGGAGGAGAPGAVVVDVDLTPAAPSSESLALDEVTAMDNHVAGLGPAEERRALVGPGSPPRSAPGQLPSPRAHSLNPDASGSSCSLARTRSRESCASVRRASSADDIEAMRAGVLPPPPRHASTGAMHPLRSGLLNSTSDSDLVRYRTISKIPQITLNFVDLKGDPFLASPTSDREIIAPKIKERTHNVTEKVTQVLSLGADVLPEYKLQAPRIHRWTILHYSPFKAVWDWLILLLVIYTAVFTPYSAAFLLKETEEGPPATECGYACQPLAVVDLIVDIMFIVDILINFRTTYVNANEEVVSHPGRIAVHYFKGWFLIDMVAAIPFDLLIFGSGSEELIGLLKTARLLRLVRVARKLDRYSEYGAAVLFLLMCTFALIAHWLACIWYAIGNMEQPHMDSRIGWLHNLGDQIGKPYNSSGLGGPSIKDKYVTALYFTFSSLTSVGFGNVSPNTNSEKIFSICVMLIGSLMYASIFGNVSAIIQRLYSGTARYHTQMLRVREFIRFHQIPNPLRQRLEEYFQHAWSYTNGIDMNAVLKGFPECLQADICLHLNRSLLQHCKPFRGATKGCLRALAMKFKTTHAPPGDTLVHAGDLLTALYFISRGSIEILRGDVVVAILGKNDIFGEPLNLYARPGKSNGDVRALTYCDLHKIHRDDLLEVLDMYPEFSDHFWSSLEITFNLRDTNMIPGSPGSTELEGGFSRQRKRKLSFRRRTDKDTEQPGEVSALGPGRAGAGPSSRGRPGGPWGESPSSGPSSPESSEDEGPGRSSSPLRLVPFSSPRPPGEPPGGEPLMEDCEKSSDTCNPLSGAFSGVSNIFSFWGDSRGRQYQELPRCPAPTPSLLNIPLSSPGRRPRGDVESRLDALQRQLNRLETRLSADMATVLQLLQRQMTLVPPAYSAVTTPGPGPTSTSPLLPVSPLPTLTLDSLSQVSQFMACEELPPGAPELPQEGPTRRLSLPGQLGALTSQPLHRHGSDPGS

`C[C@H](NC(=O)C1CN(CCO)C1)c1c(O)ccc(Cl)c1Cl` [Compound 89, N-[(1S)1-(2,3-dichloro-6-hydroxyphenyl)ethyl]-1-(2-hydroxyethyl) azetidine-3-carboxamide]: the IC50 on Kv1.3 potassium channel was less than 1 µM; at hERG channel, greater than 30 µM.

Turning to `Cc1cc(O)c([C@H](N)CNC(=O)C2CNC2)cc1Cl` [Compound 94, N-[(2S)-2-amino-2-(5-chloro-2-hydroxy-4-methylphenyl)ethyl]azetidine-3-carboxamide], the values for the IC50 on Kv1.3 potassium channel and on hERG channel were less than 1 µM and greater than 30 µM, respectively.

In the case of `C[C@H](NC(=O)C1CNC1)c1c(O)ccc(Cl)c1Br` [Compound 98, N-[(1S)-1-(2-bromo-3-chloro-6-hydroxyphenyl)ethyl]azetidine-3-carboxamide], the IC50 at Kv1.3 potassium channel was less than 1 µM; at hERG channel it was greater than 30 µM.
